Patent US7078422B2, “Activator for peroxisome proliferator-activated receptor” (Nippon Chemiphar Co., Ltd., priority 2001, dated 2006)

Experiments:
GAL4-hPPARγ LBD = molecular target: T1, GAL4-hPPARγ LBD (Homo sapiens, UniProt P37231); experiment: PPARγ transactivation activity (GAL4 chimeric receptor luciferase reporter in CV-1 cells); assay type: cell-based; details: tested compound at 10^−5 M, control 10^−5 M Rosiglitazone set to 100%, DMSO alone 0%, 40 hours
T1 construct: Receptor expression plasmid (GAL4-hPPARγ LBD, GAL4-hPPARδ LBD); expressed in transfected cells; host or cells: CV-1 cells
T1 sequence (P37231 238-503 limits assumed): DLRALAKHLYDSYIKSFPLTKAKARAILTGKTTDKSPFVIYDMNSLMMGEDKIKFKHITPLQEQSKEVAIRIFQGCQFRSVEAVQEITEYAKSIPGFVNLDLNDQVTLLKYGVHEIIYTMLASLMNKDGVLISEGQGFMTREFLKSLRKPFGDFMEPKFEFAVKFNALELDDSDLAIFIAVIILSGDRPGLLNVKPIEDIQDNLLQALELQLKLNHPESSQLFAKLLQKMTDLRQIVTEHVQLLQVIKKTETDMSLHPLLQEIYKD
Method: (§1) The luciferase activity is calibrated by the β-GAL activity. A relative ligand activity relating to PPARγ-activating effect is calculated in the same manner (see the below-described Example 3).
(§2) (1) Measurement of PPARγ, δ Transactivation Activity
(§3) Each of PPARγ & δ transactivation activities of the tested compound [compound of Example 1 and known PPARγ agonist (Rosiglitazone) and known PPARδ agonist (L-165041)] was measured in the manner described below.
CV-1 was obtained from Tohoku University Aging Medical Laboratory, Medical Cell Collection Center. All test compounds were dissolved in dimethylsulfoxide (DMSO) to give a test sample of 0.1% concentration.
Receptor expression plasmid (GAL4-hPPARγ LBD, GAL4-hPPARδ LBD), Luciferase expression plasmid (UASx4-TK-LUC), and β-galactosidase expression plasmid (βGAL) similar to Kliewer, S. A., et al., ((1992) Nature, 358:771–774) were employed. […]
The culture medium was removed and the cells were washed with PBS twice. […] (luciferase activity) was measured by means of MLR-100 type Microluminoreader (available from Corona Electrics Co., Ltd.). […] A relative PPAR activity was calculated based on the following: 0% (luciferase activity (control value) of cells treated with DMSO (0.1% concentration, solvent) alone), 100% (luciferase activity of cells treated with a control reagent (PPARγ: 10^−5 M Rosiglitazone, PPARδ: 10^−4 M L-165041)).

GAL4-hPPARδ LBD = molecular target: T2, GAL4-hPPARδ LBD (Homo sapiens, UniProt Q03181); experiment: PPARδ transactivation activity (GAL4 chimeric receptor luciferase reporter in CV-1 cells); assay type: cell-based; details: tested compound at 10^−5 M, control 10^−4 M L-165041 set to 100%, DMSO alone 0%, 40 hours
T2 construct: A chimeric receptor expression plasmid (GAL4-hPPARδ LBD); expressed in transfected cells; host or cells: CV-1 cells
T2 sequence (Q03181 211-439 limits assumed): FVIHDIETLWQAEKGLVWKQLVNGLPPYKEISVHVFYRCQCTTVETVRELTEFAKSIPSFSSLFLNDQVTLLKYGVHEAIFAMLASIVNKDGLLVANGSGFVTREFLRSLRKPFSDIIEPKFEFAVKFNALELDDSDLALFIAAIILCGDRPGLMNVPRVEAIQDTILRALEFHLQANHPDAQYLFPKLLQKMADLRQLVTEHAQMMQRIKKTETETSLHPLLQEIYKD
Method: The PPARδ activating effect of the compound of the invention was determined by the following method:
A chimeric receptor expression plasmid (GAL4-hPPARδ LBD), a reporter plasmid (UASx4-TK-LUC) and β-galactosidase (β-GAL) are transfected into CV-1 cells by utilizing a lipofection reagent DMRIE-C (Life Technologies). Subsequently, it is incubated for 40 hours in the presence of a compound of the invention or a compound for comparison (GW-2433), and then the luciferase activity and β-GAL activity are measured on the soluble cells.
as §1, §2, §3
CV-1 was obtained from Tohoku University Aging Medical Laboratory, Medical Cell Collection Center. All test compounds were dissolved in dimethylsulfoxide (DMSO) to give a test sample of 0.1% concentration. […]
The culture medium was removed and the cells were washed with PBS twice. […] (luciferase activity) was measured by means of MLR-100 type Microluminoreader (available from Corona Electrics Co., Ltd.). […]

PPAR activity (relative value) for PPARγ (GAL4-hPPARγ LBD): 50% | PPAR activity (relative value) for PPARδ (GAL4-hPPARδ LBD): 93±3%
Compound: CC(C)c1oc(-c2ccccc2Cl)nc1CCCC(=O)c1ccc(CC(=O)O)cc1 [Example 1, [4-[4-[2-(2-Chlorophenyl)-5-isopropyloxazol-4-yl]butyryl]phenyl]acetic acid]
